Several values for one entry are separate records, joined by “and”; a condition that tells them apart may be missing. Identical values can stand only once.
Tests used:
[1] = Oil Stability Index (OSI), antioxidant activity in COFA, AOCS Cd 12b-92; settings: 110° C.
Method: Antioxidants were added on a weight percent basis to quantities of Corn Oil Fatty Acids (CAS No. 8001-30-7) and allowed to dissolve. […] COFA samples containing undissolved antioxidants were thoroughly mixed before withdrawing samples for analysis, to ensure the samples contained the specified weight percent of antioxidant.
Samples were run and the induction periods were determined according to AOCS method Cd 12b-92. All samples were tested at 110° C.

[2] = tested on: yeast (e.g., Saccharomyces); settings: cited from earlier work
[3] = tested on: gram-negative and gram-positive bacteria (e.g., Lactobacillus); settings: cited from earlier work

For `Cc1c(Cc2cc(C(C)(C)C)c(O)c(C(C)(C)C)c2)c(C)c(Cc2cc(C(C)(C)C)c(O)c(C(C)(C)C)c2)c(C)c1Cc1cc(C(C)(C)C)c(O)c(C(C)(C)C)c1` [Irganox 1330], the “Activity Index” value ([1]; Crude COFA, dose 0.2046 Wt %) was 1.65 and the OSI ([1]; Crude COFA, dose 0.2046 Wt %) was 2.35 h.

For `CCCCCCCCCCCCCCCC(=O)OC[C@H](O)[C@H]1OC(=O)C(O)=C1O` [L-ascorbic acid 6-palmitate], the OSI ([1]; Crude COFA, dose 0.0100 Wt %) was 10.05 h, the OSI ([1]; Crude COFA, dose 0.0200 Wt %) was 4.1 h and the OSI ([1]; Crude COFA, dose 0.2000 Wt %) was 25.4 h and 29.8 h. For the same molecule, the OSI ([1]; Crude COFA, dose 0.2045 Wt %) was 26.4 h.

For `CCOc1ccc2c(c1)C(C)=CC(C)(C)N2` [Ethoxyquin], the “Activity Index” value ([1]; Crude COFA, dose 0.2074 Wt %) was 0.67 and the OSI ([1]; Crude COFA, dose 0.2074 Wt %) was 0.95 h.

For `c1ccc2c(c1)Nc1ccccc1S2` [Phenothiazine], the “Activity Index” value ([1]; Crude COFA, dose 0.2034 Wt %) was 1.61 and the OSI ([1]; Crude COFA, dose 0.2034 Wt %) was 2.3 h.

For `Cc1cc(C(C)(C)C)c(O)c(C(C)(C)C)c1` [BHT, butylated hydroxytoluene], the Effect on yeast [2] is given as “does not affect yeast”, the “Activity Index” value ([1]; Crude COFA, dose 0.0200 Wt %) is given as 1.42 and the OSI ([1]; Crude COFA, dose 0.0200 Wt %) is given as 1.85 h. For the same molecule, the “Activity Index” value ([1]; Crude COFA, dose 0.1998 Wt %) was 2.19, the OSI ([1]; Crude COFA, dose 0.1998 Wt %) was 2.85 h and the “Activity Index” value ([1]; Crude COFA, dose 0.2020 Wt %) was 2.11. The OSI ([1]; Crude COFA, dose 0.2020 Wt %) was 3 h, the “Activity Index” value ([1]; Crude COFA, dose 0.205 Wt %) was 2.43 and 2.72 and the OSI ([1]; Crude COFA, dose 0.205 Wt %) was 11.3 h and 12.65 h. For the same molecule, the “Activity Index” value ([1]; Crude COFA, dose 0.2097 Wt %) was 2.07, the OSI ([1]; Crude COFA, dose 0.2097 Wt %) was 2.95 h and the “Activity Index” value ([1]; Distilled COFA, dose 0.2 Wt %) was 17.63. For the same molecule, the OSI ([1]; Distilled COFA, dose 0.2 Wt %) was 2.35 h, the “Activity Index” value ([1]; Distilled COFA, dose 1.1 Wt %) was 52.50 and the OSI ([1]; Distilled COFA, dose 1.1 Wt %) was 7 h. For the same molecule, the “Activity Index” value ([1]; Distilled COFA, dose 2 Wt %) was 66.00, the OSI ([1]; Distilled COFA, dose 2 Wt %) was 8.8 h and the Antimicrobial activity [3] was “have antimicrobial activity”.

With `CC(C)(C)c1cc(O)ccc1O` [TBHQ, tertiary-butylhydroquinone] the “Activity Index” value ([1]; Crude COFA, dose 0.0200 Wt %) was 1.35, the OSI ([1]; Crude COFA, dose 0.0200 Wt %) was 1.75 h and the “Activity Index” value ([1]; Crude COFA, dose 0.2000 Wt %) was 2.81. The OSI ([1]; Crude COFA, dose 0.2000 Wt %) was 3.65 h, the “Activity Index” value ([1]; Crude COFA, dose 0.2082 Wt %) was 2.60 and the OSI ([1]; Crude COFA, dose 0.2082 Wt %) was 3.7 h.

In the case of `O=C(O)c1cc(O)c(O)c(O)c1` [Gallic acid], the “Activity Index” value ([1]; Crude COFA, dose 0.193 Wt %) is reported as 1.70 and 1.25 and the OSI ([1]; Crude COFA, dose 0.193 Wt %) is reported as 7.9 h and 5.8 h.

With `Cc1c(C)c2c(c(C)c1O)CC[C@@](C)(CCC[C@H](C)CCC[C@H](C)CCCC(C)C)O2` [a-Tocopherol] the “Activity Index” value ([1]; Distilled COFA, dose 0.2 Wt %) was 2.63, the OSI ([1]; Distilled COFA, dose 0.2 Wt %) was 0.35 h and the “Activity Index” value ([1]; Distilled COFA, dose 1.1 Wt %) was 1.13. The OSI ([1]; Distilled COFA, dose 1.1 Wt %) was 0.15 h, the “Activity Index” value ([1]; Distilled COFA, dose 2 Wt %) was 1.13 and the OSI ([1]; Distilled COFA, dose 2 Wt %) was 0.15 h.
